Assay [1] has as its target T1, Muscarinic receptor 1 (Rattus norvegicus, UniProt P08482).
T1 construct: cortices removed from the brains of male rats; from tissue; host or cells: rat brain cortex homogenate
T1 sequence (P08482 1-460): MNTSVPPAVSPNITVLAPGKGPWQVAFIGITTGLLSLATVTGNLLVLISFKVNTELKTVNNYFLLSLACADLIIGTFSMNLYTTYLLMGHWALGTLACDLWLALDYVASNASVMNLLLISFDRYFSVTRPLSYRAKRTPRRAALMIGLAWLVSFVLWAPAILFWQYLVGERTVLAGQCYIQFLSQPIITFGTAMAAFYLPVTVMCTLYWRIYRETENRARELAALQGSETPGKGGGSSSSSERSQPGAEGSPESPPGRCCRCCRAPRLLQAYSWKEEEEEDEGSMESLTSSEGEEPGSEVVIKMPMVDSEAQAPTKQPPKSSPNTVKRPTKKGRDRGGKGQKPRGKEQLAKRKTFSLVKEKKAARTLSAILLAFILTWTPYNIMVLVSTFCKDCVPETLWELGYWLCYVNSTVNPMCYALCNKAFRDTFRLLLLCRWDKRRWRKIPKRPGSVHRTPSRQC
Put plainly: Binding to muscarinic receptor 1 ([^3 H]pirenzepine), rat cortex. The note with it: for IC50: 0.25 nM [^3 H]pirenzepine, 60 minutes at 25° C., pH 7.4, rat cortex, read-out: Affinity for M1 muscarinic receptors, [^3 H]pirenzepine, IC50; for affinity for the muscarinic receptor (in words): summary of Table 1. Here is the method: (§1) 1) Binding to different brain receptors.
Preparation of this is carried out from cortices removed from the brains of male rats weighing 150 to 200 g (Iffa Credo), ground in a Polytron in a 10 mM Na/K buffer pH 7.4. After incubation (0.5 ml aliquots of homogenate) for 60 minutes at 25° C. in the presence of 0.25 nM [^3 H]pirenzepine, either alone, or with the test product, or with an excess of 10^-5 M pirenzepine (to determine the non-specifically bound radioactivity), the incubates are cooled and filtered.
The filtration is performed on Whatman GF/C filters prewashed in a 0.05% strength solution of polyethylenimine. The filters are rinsed with 3×5 ml of 10 mM Na/K phosphate buffer pH 7.4 and the measurements are then performed by liquid scintillation.
(§2) The results are expressed as an IC50 (concentration needed to inhibit by 50% the specifically bound radioactivity).

Assay [2] has as its target Muscarinic receptor 2. Put plainly: Binding to muscarinic receptor 2 ([^3 H]quinuclidinyl benzylate), rat brain. The note with it: 0.3 nM [^3 H]quinuclidinyl benzylate, 60 minutes at 25° C., pH 7.5, rat brain; read-out: Affinity for M2 muscarinic receptors, [^3 H]quinuclidinyl benzylate, IC50. The protocol:
as §1
The preparation is performed from brains of male rats weighing 150 to 200 g (Iffa Credo).
The brains are ground (Teflon-glass) in 0.32M sucrose solution. The homogenate is centrifuged for 10 minutes at 1,000 g (0°-4° C.)
The supernatant obtained is collected and centrifuged at 30,000 g for 15 minutes (0°-4° C.).
The regulus is resuspended in 50 mM Tris buffer pH 7.5 and the new homogenate is centrifuged again at 30,000 g for 15 minutes (0°-4° C.).
After removal of the supernatant, the regulus may be used immediately or stored for up to 1 month at -30° C.
For an experiment, the regulus are first thawed, if necessary, at room temperature and resuspended using a Dounce in 50 mM Tris buffer pH 7.5. 2 ml aliquots are incubated for 60 minutes at 25° C. in the presence of 0.3 nM [^3 H]quinuclidinyl benzylate, either alone, or with the test product, or with 10^-5 M benzatropine to determine the non-specifically bound radioactivity.
At the end of the incubation period, the incubate tubes are cooled to 4° C. and filtered rapidly on Whatman GF/C filters. The filters are rinsed with 3×5 ml of […] Tris buffer pH 7.5 and the measurements are then performed by liquid scintillation (Henry I. Yamamura, Solomon H. Snyder, Proc. Nat. Acad. Sc. (1974) 71, No. 5, 1725-1729).
as §2

The target of assay [3] is histamine receptors. As to the kind of experiment: Binding to other brain receptors: histamine. The following applies: negligible affinity.
Text: as §1

In assay [4] the target is serotonin 5-HT1 receptors. Put plainly: Binding to other brain receptors: serotonin 5-HT1. The note with it: negligible affinity.
Text: as §1

Assay [5] has as its target T2, serotonin 5-HT2 receptors (Homo sapiens, UniProt P28223).
T2 construct: from tissue
As to the kind of experiment: Binding to other brain receptors: serotonin 5-HT2. The note with it: negligible affinity.
Text: as §1

For assay [6], the target named is benzodiazepines receptors. As to the kind of experiment: Binding to other brain receptors: benzodiazepines. The note with it: negligible affinity.
Text: as §1

In assay [7] the target is GABA receptors. As to the kind of experiment: Binding to other brain receptors: GABA. The note with it: negligible affinity.
Text: as §1

Assay [8] has as its target T3, adrenoreceptors beta1 (Homo sapiens, UniProt P08588).
T3 construct: from tissue
Put plainly: Binding to other brain receptors: adrenoreceptor beta1. The note with it: negligible affinity.
Text: as §1

Assay [9] concerns the target T4, adrenoreceptors beta2 (Homo sapiens, UniProt P07550).
T4 construct: from tissue
As to the kind of experiment: Binding to other brain receptors: adrenoreceptor beta2. The following applies: negligible affinity.
Text: as §1

Assay [10] deals with T5, opiate receptors mu (Homo sapiens, UniProt P35372).
T5 construct: from tissue
As to the kind of experiment: Binding to other brain receptors: opiate mu. The note with it: negligible affinity.
Text: as §1

Assay [11] has as its target T6, opiate receptors kappa (Homo sapiens, UniProt P41145).
T6 construct: from tissue
As to the kind of experiment: Binding to other brain receptors: opiate kappa. The following applies: negligible affinity.
Text: as §1

In assay [12] the test system is isolated guinea pig ileum, contractions induced by histamine. As to the kind of experiment: Antagonist action on contractions induced by histamine, isolated guinea pig ileum. The note with it: histamine 1×10^-5 M; contact time one minute; 37° C.; read-out: Antagonist to different agents (IC50), Histam. Here is the method:
The interaction of the compounds with different receptors was assessed on isolated guinea pig ileum according to the following method.
Guinea pig ileum segments measuring 2.5-3 cm were washed and immediately suspended in a bath containing 10 ml of Tyrode's solution at 37° C. aerated with a mixture of oxygen (95%) and carbon dioxide (5%). After a stabilization period of at least 30 minutes, the contractions were recorded, maintaining the preparation under constant tension of 1 g using a gauge connected to a polygraph. The agonist action was assessed by leaving the compound in contact with the isolated tissue for a period necessary for expressing the maximal contraction; the preparation was then washed with Tyrode's solution. The next dose was added to the bath only after the preparation had returned to its base line. As a reference product, arecoline was employed. The antagonist action was assessed on contractions induced by acetyl choline (1×10^-6 M), histamine (1×10^-5 M) and barium chloride (2×10^-4 M). […] The contact time before adding the agonist was one minute.
For each compound, the dose-response curves are obtained with 4 to 6 different concentrations and 3 to 5 independent tests. The agonist activity is expressed by pD2 (negative logarithm of the dose which produces 50% of maximum effect). The antagonist activity is expressed by IC50 (concentration inhibiting 50% of the maximal response).

T5 sequence (P35372 whole entry): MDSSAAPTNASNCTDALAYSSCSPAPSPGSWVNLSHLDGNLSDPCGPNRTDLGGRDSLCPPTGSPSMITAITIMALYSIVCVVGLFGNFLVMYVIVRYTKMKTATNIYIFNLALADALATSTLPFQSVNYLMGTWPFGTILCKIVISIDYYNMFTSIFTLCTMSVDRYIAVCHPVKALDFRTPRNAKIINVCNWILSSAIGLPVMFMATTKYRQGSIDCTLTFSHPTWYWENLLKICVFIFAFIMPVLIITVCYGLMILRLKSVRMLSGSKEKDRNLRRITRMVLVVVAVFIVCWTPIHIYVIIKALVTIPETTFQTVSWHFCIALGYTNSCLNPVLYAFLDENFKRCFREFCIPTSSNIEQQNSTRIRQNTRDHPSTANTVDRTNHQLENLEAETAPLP
T4 sequence (P07550 whole entry): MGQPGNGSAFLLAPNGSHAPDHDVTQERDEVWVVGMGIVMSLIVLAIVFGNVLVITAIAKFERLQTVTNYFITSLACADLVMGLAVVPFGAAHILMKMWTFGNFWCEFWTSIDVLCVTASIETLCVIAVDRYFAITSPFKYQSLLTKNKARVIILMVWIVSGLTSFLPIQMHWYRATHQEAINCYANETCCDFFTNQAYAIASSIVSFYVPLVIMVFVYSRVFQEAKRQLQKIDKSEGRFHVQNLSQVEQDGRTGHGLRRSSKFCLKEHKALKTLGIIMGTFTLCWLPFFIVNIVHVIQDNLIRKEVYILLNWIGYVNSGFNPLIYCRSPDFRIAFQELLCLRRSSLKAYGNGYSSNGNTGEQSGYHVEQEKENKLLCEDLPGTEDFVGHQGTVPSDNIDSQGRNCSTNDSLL
T6 sequence (P41145 whole entry): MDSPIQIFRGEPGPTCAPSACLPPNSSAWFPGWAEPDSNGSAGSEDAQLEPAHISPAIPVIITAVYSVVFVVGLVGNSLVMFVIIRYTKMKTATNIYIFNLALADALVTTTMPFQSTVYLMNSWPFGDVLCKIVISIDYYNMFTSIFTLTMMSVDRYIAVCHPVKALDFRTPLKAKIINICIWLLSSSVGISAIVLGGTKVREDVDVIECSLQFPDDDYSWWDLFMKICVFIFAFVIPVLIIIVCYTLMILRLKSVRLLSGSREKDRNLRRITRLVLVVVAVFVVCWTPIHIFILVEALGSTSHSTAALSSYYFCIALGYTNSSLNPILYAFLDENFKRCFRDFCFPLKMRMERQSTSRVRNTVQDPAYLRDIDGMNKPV
T3 sequence (P08588 whole entry): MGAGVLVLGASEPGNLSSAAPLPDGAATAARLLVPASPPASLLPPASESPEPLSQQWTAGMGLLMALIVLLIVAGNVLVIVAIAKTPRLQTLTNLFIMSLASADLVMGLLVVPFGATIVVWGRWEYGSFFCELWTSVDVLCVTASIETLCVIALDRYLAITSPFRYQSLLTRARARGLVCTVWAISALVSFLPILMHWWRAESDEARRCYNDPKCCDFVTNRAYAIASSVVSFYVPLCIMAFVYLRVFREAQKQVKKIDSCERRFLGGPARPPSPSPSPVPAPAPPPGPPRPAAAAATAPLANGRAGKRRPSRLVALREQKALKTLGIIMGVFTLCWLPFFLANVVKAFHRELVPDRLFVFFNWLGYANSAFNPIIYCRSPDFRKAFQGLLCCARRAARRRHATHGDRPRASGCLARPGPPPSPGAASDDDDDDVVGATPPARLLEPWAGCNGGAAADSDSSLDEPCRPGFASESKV
T2 sequence (P28223 whole entry): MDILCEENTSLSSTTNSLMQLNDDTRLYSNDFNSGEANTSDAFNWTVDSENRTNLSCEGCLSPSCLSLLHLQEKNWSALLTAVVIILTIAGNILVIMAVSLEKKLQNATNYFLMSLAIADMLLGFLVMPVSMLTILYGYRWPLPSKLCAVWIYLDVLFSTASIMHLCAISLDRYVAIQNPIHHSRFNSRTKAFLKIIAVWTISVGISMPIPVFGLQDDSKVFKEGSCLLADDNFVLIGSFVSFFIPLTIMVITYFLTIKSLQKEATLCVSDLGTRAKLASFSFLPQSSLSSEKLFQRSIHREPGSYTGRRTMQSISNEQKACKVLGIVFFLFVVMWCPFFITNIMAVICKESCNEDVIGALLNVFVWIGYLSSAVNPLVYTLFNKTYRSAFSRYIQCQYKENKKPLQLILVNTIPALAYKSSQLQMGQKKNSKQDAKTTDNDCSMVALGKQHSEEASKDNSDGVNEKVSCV

For `CCN(CC)c1ccc(S(=O)(=O)N2CCCCC2=O)cc1` [Example 2, 1-[4-(Diethylamino)benzenesulphonyl]-2-piperidinone], the IC50 (in general, the concentration at which inhibition is half-maximal) was 0.314 µM in assay [1]; 4.6 µM in assay [2]; 5 to 10 µM in [3]; 5 to 10 µM in assay [4]; 5 to 10 µM in assay [5]; 5 to 10 µM in assay [6]. Besides, the IC50 is 5 to 10 µM in assay [7]; 5 to 10 µM in assay [8]; 5 to 10 µM in assay [9]; 5 to 10 µM in assay [10]; 5 to 10 µM in [11]; over 10 µM in assay [12]. Further, the “affinity for the muscarinic receptor (in words)” value (shortened to “affinity”) in assay [1] was “noteworthy advantageous affinity for the muscarinic receptor, and mainly for the M1 type receptor”.

Turning to `O=C1CCCCN1S(=O)(=O)c1ccc(N2CCCCC2)cc1` [Example 4, 1-[4-(1-Piperidinyl)benzenesulphonyl] -2-piperidinone], the half-inhibitory concentration (IC50) in assay [1] was 0.128 µM; in [2], 2.24 µM; in assay [3], 5 to 10 µM; in [4] it was 5 to 10 µM; in assay [5], 5 to 10 µM; in assay [6], 5 to 10 µM. Moreover, the IC50 in assay [7] is 5 to 10 µM; in assay [8], 5 to 10 µM; in [9], 5 to 10 µM; in assay [10], 5 to 10 µM; in assay [11], 5 to 10 µM; in assay [12] it was over 10 µM. Moreover, the “affinity” value in assay [1] is “noteworthy advantageous affinity for the muscarinic receptor, and mainly for the M1 type receptor”.

Consider `O=C1CCCCN1S(=O)(=O)c1ccc(N2CCCCCC2)cc1` [Example 5, 1-[4-(1-Hexahydroazepinyl)benzenesulphonyl]-2-piperidinone], for which the IC50 in assay [1] was 0.049 µM; in assay [2], 0.66 µM; in [3], 5 to 10 µM; in [4], 5 to 10 µM; in assay [5], 5 to 10 µM; in assay [6], 5 to 10 µM. The IC50 was 5 to 10 µM in assay [7]; 5 to 10 µM in [8]; 5 to 10 µM in [9]; 5 to 10 µM in assay [10]; 5 to 10 µM in [11]; over 10 µM in assay [12]. Also, in assay [1], the “affinity” value was “noteworthy advantageous affinity for the muscarinic receptor, and mainly for the M1 type receptor”.

(Values after patent publication US5041436A, “1-arylsulphonyl-2-piperidinone derivatives, process and intermediates for the preparation thereof, their application as antispasmodics and compositions containing them” (Roussel Uclaf, priority 1989, dated 1991).)
